One may read the IC50 as the concentration that inhibits the measured activity by half.

Consider seven compounds from patent EP0520823A2, “Non-substrate peptide inhibitors of farnesyl protein transferase” (MERCK & CO. INC., priority 1991, dated 1992).

The subject of experiment [1] is partially pure bovine brain farnesyl-protein transferase. As to the kind of experiment: Tetrapeptides tested as farnesylation substrates ([3H]FPP, TLC, autoradiography). The class given is biochemical. The following applies: peptide 200 µM, 0.5 µM [3H] FPP, 30 min. at 30°C. As for the experimental part:
When a peptide was used as the acceptor substrate, there were two changes to the assay: (1) Ras protein was excluded and, (2) the reactions were stopped by the additon of one tenth volume of 0.5 M EDTA. […] After drying under vacuum, the plates were sprayed with […] exposed to X-ray film at -70°C. […] These Rf values reflect TLC conditions using ethylacetate:pyridine: acetic acid:water (10:5:1:3) as the eluent. […] CAIS (Rf=0.84) and CAIM (Rf=0.83)). Quenched reaction mixtures containing peptide, farnesyldiphosphate and farnesyl-protein transferase were separated by TLC followed by visualization of the radioactive species by autoradiography. […] Control peptides having a […] substitution were not substrates. […] Autoradiographic exposure time was overnight (15-20 hr).

The target of experiment [2] is T1, Farnesyl-protein transferase from bovine brain (partially purified) (Bos taurus, UniProt P29702+P49355).
T1 construct: Cerebral lobes from bovine brains were homogenized in lysis buffer; from tissue; host or cells: bovine brain (cerebral lobes)
Description: Inhibition of Ras farnesylation by tetrapeptides. Format: biochemical. The following applies: Ras-CVLS at 3.5 µM, 0.25 µM [³H]FPP; average of 2-5 determinations. How it is done:
The quenched reactions were allowed to stand for 15 minutes (to complete the precipitation process).
Fractions (20 mL) were collected and those containing farnesyl-protein transferase activity were pooled.
Single capital letter amino acid abbreviations are used above.

For experiment [3], the system named is bovine brain farnesyl-protein transferase. The following applies: earlier findings (Schaber et al.); cited from earlier work.

Where a SMILES comes first, the peptide text is derived from it. [ ]: non-standard residue; d: D form.

With `CSCC[C@H](NC(=O)[C@@H](Cc1ccccc1)NC(=O)[C@@H](NC(=O)[C@@H](N)CS)C(C)C)C(=O)O` [CV(dF)M, Cys-Val-D-Phe-Met], the Farnesylation substrate result in experiment [1] was “- (- < 1% conversion)”.
For the compound `CC(C)C[C@@H](NC(=O)[C@@H](NC(=O)[C@@H](N)CS)C(C)C)C(=O)N[C@@H](CO)C(=O)O` [CV(dL)S, Cys-Val-D-Leu-Ser], in experiment [2], the IC50 is 20 µM. The Farnesylation substrate result in experiment [1] is recorded as “- (- < 1% conversion)”.
`CC(C)C[C@H](NC(=O)[C@@H](NC(=O)[C@@H](N)CS)C(C)C)C(=O)N[C@H](CO)C(=O)O` [CVL(dS)]: in experiment [2], the IC50 came to 11 µM. The Farnesylation substrate result in experiment [1] was “+ (+ > 90% [^3H] farnesyl diphosphate converted to [^3H] farnesyl tetrapeptide)”.
`CC(=O)N[C@H](CS)C(=O)N[C@H](C(=O)N[C@@H](CC(C)C)C(=O)N[C@@H](CO)C(=O)O)C(C)C` [N-Ac-(dC)VLS] (Ac-[dC]VLS-OH) had an IC50 in experiment [2] of 60 µM. Also, in experiment [1], the Farnesylation substrate result was “+ (+ > 90% [^3H] farnesyl diphosphate converted to [^3H] farnesyl tetrapeptide)”.
For `CC(=O)N[C@@H](CS)C(=O)N[C@H](C(=O)N[C@@H](CC(C)C)C(=O)N[C@@H](CO)C(=O)O)C(C)C` [N-Ac-CVLS] (Ac-CVLS-OH), in that order: 2 µM and “+ (+ > 90% [^3H] farnesyl diphosphate converted to [^3H] farnesyl tetrapeptide)”.
With `CC(C)C[C@H](NC(=O)[C@@H](NC(=O)[C@@H](N)CO)C(C)C)C(=O)N[C@@H](CO)C(=O)O` [SVLS] (H-SVLS-OH), in experiment [1], the Farnesylation substrate entry is on record as “- (- < 1% conversion)”.
With SSGCVLS [heptapeptide SSGCVLS], the substrate for isoprenylation result in experiment [3] is “served as a substrate for isoprenylation”.
